Patent US9315503B2, “Kinase inhibitors” (CHIESI FARMACEUTICI S.p.A., priority 2011, dated 2016)
Where a name gives a salt, the structure may show the parent alone.

Biological target: T1, p38alpha (Homo sapiens, UniProt Q16539)
T1 construct: purchased Invitrogen PV3304
Assay: P38Alpha enzyme inhibition assay (Alphascreen kinase activity assay)
Format: biochemical
Conditions: 100 pM p38alpha, 250 μM ATP, 2 hours pre-incubation at 25° C., read-out: p38α inhibition (IC50 values)
Protocol: P38Alpha Enzyme Inhibition Assay.
The inhibitory activity of compounds was determined using an Alphascreen® (Perkin Elmer) based kinase activity assay. Kinase reactions consisted of 25 mM HEPES pH 7.5, 10 mM MgCl2, 100 μM Na3VO4, 2 mM DTT, 0.05 mg/ml Tween 20, 100 pM p38alpha (Invitrogen, PV3304), 1% DMSO and 0.3 μg/ml ATF-2 fusion protein (New England Biolabs, 9224). Compounds were incubated under these conditions for 2 hours, at 25° C., prior to the initiation of the kinase activity by the addition of the 250 μM ATP. Reaction volumes were 20 uL. After 1 hr at 25° C. reactions were stopped by the adding 10 uL of 25 mM HEPES pH 7.5 containing 62.5 mM EDTA, 0.05% Triton X-100, 10% BSA and 0.83 ng/uL anti-phospho-ATF2 antibody (Abeam, ab28812). Detection was performed by measuring luminescence following the addition of Alphascreen Donor beads (Perkin Elmer 6765300) and Protein A Alphascreen Acceptor beads (Perkin Elmer 6760137), both at a final concentration of 20 ug/ml. IC50 values were determined from concentration-response curves.

T1 sequence (Q16539 whole entry): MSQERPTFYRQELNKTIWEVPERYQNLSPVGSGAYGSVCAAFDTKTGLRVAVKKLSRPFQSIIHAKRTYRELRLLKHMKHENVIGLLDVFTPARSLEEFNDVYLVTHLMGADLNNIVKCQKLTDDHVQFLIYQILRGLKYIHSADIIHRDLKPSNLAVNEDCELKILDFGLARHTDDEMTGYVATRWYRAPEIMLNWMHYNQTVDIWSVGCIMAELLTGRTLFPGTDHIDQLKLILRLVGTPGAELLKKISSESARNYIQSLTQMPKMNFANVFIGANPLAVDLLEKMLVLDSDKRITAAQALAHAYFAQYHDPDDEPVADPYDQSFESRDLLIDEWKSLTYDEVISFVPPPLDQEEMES

Structure (SMILES) | IC50
C[C@H]1CCCCN1c1nnc2ccc(O[C@@H]3CC[C@H](NC(=O)Nc4cc(C(C)(C)C)nn4-c4cccc(OCCN5C6CCC5COC6)c4)c4ccccc43)cn12 [Example 166, 1-(5-tert-Butyl-2-{3-[2-(3-oxa-8-aza-bicyclo[3.2.1]oct-8-yl)-ethoxy]-phenyl}-2H-pyrazol-3-yl)-3-{(1S,4R)-4-[3-((S)-2-methyl-piperidin-1-yl)-[1,2,4]triazolo[4,3-a]pyridin-6-yloxy]-1,2,3,4-tetrahydro-naphthalen-1-yl}-urea formate salt] | < 10 nM
COCCN(C)Cc1ccc(-n2nc(C(C)(C)C)cc2NC(=O)N[C@H]2CC[C@@H](Oc3ccc4nnc(N5CCCC[C@@H]5C)n4c3)c3ccccc32)cc1 [Example 185, 1-[5-tert-Butyl-2-(4-{[(2-methoxy-ethyl)-methyl-amino]-methyl}-phenyl)-2H-pyrazol-3-yl]-3-{(1S,4R)-4-[3-((S)-2-methyl-piperidin-1-yl)-[1,2,4]triazolo[4,3-a]pyridin-6-yloxy]-1,2,3,4-tetrahydro-naphthalen-1-yl}-urea formate salt] | < 10 nM
C[C@H]1COCCN1c1nnc2ccc(O[C@@H]3CC[C@H](NC(=O)Nc4cc(C(C)(C)C)nn4CCO)c4ccccc43)cn12 [Example 139, 1-[5-tert-Butyl-2-(2-hydroxy-ethyl)-2H-pyrazol-3-yl]-3-{(1S,4R)-4-[3-((S)-3-methyl-morpholin-4-yl)-[1,2,4]triazolo[4,3-a]pyridin-6-yloxy]-1,2,3,4-tetrahydro-naphthalen-1-yl}-urea] | < 10 nM
Cc1ccc(-n2nc(C(C)(C)C)cc2NC(=O)N[C@H]2CC[C@@H](Oc3ccc4nnc(N(C)CCN5CCOCC5)n4c3)c3ccccc32)cc1 [Example 45, 1-(5-tert-Butyl-2-p-tolyl-2H-pyrazol-3-yl)-3-((1S,4R)-4-{3-[methyl-(2-morpholin-4-yl-ethyl)-amino]-[1,2,4]triazolo[4,3-a]pyridin-6-yloxy}-1,2,3,4-tetrahydro-naphthalen-1-yl)-urea] | < 10 nM
C[C@H]1CCCCN1c1nnc2ccc(O[C@@H]3CC[C@H](NC(=O)Nc4cc(C(C)(C)C)nn4-c4cccc(OCCN5C6CCCC5CC6)c4)c4ccccc43)cn12 [Example 162, 1-(2-{3-[2-(8-Aza-bicyclo[3.2.1]oct-8-yl)-ethoxy]-phenyl}-5-tert-butyl-2H-pyrazol-3-yl)-3-{(1S,4R)-4-[3-((S)-2-methyl-piperidin-1-yl)-[1,2,4]triazolo[4,3-a]pyridin-6-yloxy]-1,2,3,4-tetrahydro-naphthalen-1-yl}-urea formate salt] | < 10 nM
Cc1ccc(-n2nc(C(C)(C)C)cc2NC(=O)N[C@H]2CC[C@@H](Oc3ccc4nnc([C@@H]5C[C@@H](F)CN5C)n4c3)c3ccccc32)cc1 [Example 91, 1-(5-tert-Butyl-2-p-tolyl-2H-pyrazol-3-yl)-3-{(1S,4R)-4-[3-((2S,4R)-4-fluoro-1-methyl-pyrrolidin-2-yl)-[1,2,4]triazolo[4,3-a]pyridin-6-yloxy]-1,2,3,4-tetrahydro-naphthalen-1-yl}-urea] | < 10 nM
CCN(CC)CCOc1cccc(-n2nc(C(C)(C)C)cc2NC(=O)N[C@H]2CC[C@@H](Oc3ccc4nnc(N5CCCC[C@@H]5C)n4c3)c3ccccc32)c1 [Example 155, 1-{5-tert-Butyl-2-[3-(2-diethylamino-ethoxy)-phenyl]-2H-pyrazol-3-yl}-3-{(1S,4R)-4-[3-((S)-2-methyl-piperidin-1-yl)-[1,2,4]triazolo[4,3-a]pyridin-6-yloxy]-1,2,3,4-tetrahydro-naphthalen-1-yl}-urea formate salt] | < 10 nM
CCN(C)Cc1ccc(-n2nc(C(C)(C)C)cc2NC(=O)N[C@H]2CC[C@@H](Oc3ccc4nnc(N5CCCC[C@@H]5C)n4c3)c3ccccc32)cc1 [Example 184, 1-(5-tert-Butyl-2-{4-[(ethyl-methyl-amino)-methyl]-phenyl}-2H-pyrazol-3-yl)-3-{(1S,4R)-4-[3-((S)-2-methyl-piperidin-1-yl)-[1,2,4]triazolo[4,3-a]pyridin-6-yloxy]-1,2,3,4-tetrahydro-naphthalen-1-yl}-urea formate salt] | < 10 nM

The next lines start with the values.

IC50 | Structure (SMILES)
< 10 nM | C[C@H]1CCCCN1c1nnc2ccc(O[C@@H]3CC[C@H](NC(=O)Nc4cc(C(C)(C)C)nn4-c4cccc(OCCN5CCCN(C)CC5)c4)c4ccccc43)cn12 [Example 160, 1-(5-tert-Butyl-2-{3-[2-(4-methyl-[1,4]-diazepan-1-yl)-ethoxy]-phenyl}-2H-pyrazol-3-yl)-3-{(1S,4R)-4-[3-((S)-2-methyl-piperidin-1-yl)-[1,2,4]triazolo[4,3-a]pyridin-6-yloxy]-1,2,3,4-tetrahydro-naphthalen-1-yl}-urea formate salt]
< 10 nM | COC1CCN(CCOc2cccc(-n3nc(C(C)(C)C)cc3NC(=O)N[C@H]3CC[C@@H](Oc4ccc5nnc(N6CCCC[C@@H]6C)n5c4)c4ccccc43)c2)CC1 [Example 165, 1-(5-tert-Butyl-2-{3-[2-(4-methoxy-piperidin-1-yl-ethoxy]-phenyl}-2H-pyrazol-3-yl)-3-{(1S,4R)-4-[3-((S)-2-methyl-piperidin-1-yl)-[1,2,4]triazolo[4,3-a]pyridin-6-yloxy]-1,2,3,4-tetrahydro-naphthalen-1-yl}-urea formate salt]
< 10 nM | C[C@@H]1CCC[C@H](C)N1c1nnc2ccc(O[C@@H]3CC[C@H](NC(=O)Nc4cc(C(C)(C)C)nn4-c4cccc(CN5CCN(C)CC5)c4)c4ccccc43)cn12 [Example 143, 1-{5-tert-Butyl-2-[3-(4-methyl-piperazin-1-ylmethyl)-phenyl]-2H-pyrazol-3-yl}-3-{(1S,4R)-4-[3-((2S,6R)-2,6-dimethyl-piperidin-1-yl)-[1,2,4]triazolo[4,3-a]pyridin-6-yloxy]-1,2,3,4-tetrahydro-naphthalen-1-yl}-urea formate salt]
< 10 nM | C[C@H]1CCCCN1c1nnc2ccc(O[C@@H]3CC[C@H](NC(=O)Nc4cc(C(C)(C)C)nn4-c4cccc(OCCN5CCOCC5)c4)c4ccccc43)cn12 [Example 156, 1-{5-tert-Butyl-2-[3-(2-morpholin-4-yl-ethoxy)-phenyl]-2H-pyrazol-3-yl}-3-{(1S,4R)-4-[3-((S)-2-methyl-piperidin-1-yl)-[1,2,4]triazolo[4,3-a]pyridin-6-yloxy]-1,2,3,4-tetrahydro-naphthalen-1-yl}-urea partial formate salt]
< 10 nM | C[C@H]1CCCCN1c1nnc2ccc(O[C@@H]3CC[C@H](NC(=O)Nc4cc(C(C)(C)C)nn4-c4cccc(CCN5CCN(C)CC5)c4)c4ccccc43)cn12 [Example 136, 1-(5-tert-Butyl-2-{3-[2-(4-methyl-piperazin-1-yl)-ethyl]-phenyl}-2H-pyrazol-3-yl)-3-{(1S,4R)-4-[3-((S)-2-methyl-piperidin-1-yl)-[1,2,4]triazolo[4,3-a]pyridin-6-yloxy]-1,2,3,4-tetrahydro-naphthalen-1-yl}-urea formate salt]
< 10 nM | C[C@H]1CCCCN1c1nnc2ccc(O[C@@H]3CC[C@H](NC(=O)Nc4cc(C(C)(C)C)nn4-c4cccc(CN5CCCC5)c4)c4ccccc43)cn12 [Example 171, 1-[5-tert-Butyl-2-(3-pyrrolidin-1-ylmethyl-phenyl)-2H-pyrazol-3-yl]-3-{(1S,4R)-4-[3-((S)-2-methyl-piperidin-1-yl)-[1,2,4]triazolo[4,3-a]pyridin-6-yloxy]-1,2,3,4-tetrahydro-naphthalen-1-yl}-urea formate salt]
< 10 nM | C[C@H]1CCCCN1c1nnc2ccc(O[C@@H]3CC[C@H](NC(=O)Nc4cc(C(C)(C)C)nn4-c4cccc(CCN5CCOCC5)c4)c4ccccc43)cn12 [Example 131, 1-{5-tert-Butyl-2-[3-(2-morpholin-4-yl-ethyl)-phenyl]-2H-pyrazol-3-yl}-3-{(1S,4R)-4-[3-((S)-2-methyl-piperidin-1-yl)-[1,2,4]triazolo[4,3-a]pyridin-6-yloxy]-1,2,3,4-tetrahydro-naphthalen-1-yl}-urea formate salt]
< 10 nM | C[C@H]1CCCCN1c1nnc2ccc(O[C@@H]3CC[C@H](NC(=O)Nc4cc(C(C)(C)C)nn4-c4cccc(OCCN5CCN(C)CC5)c4)c4ccccc43)cn12 [Example 158, 1-(5-tert-Butyl-2-{3-[2-(4-methyl-piperazin-1-yl)-ethoxy]-phenyl}-2H-pyrazol-3-yl)-3-{(1S,4R)-4-[3-((S)-2-methyl-piperidin-1-yl)-[1,2,4]triazolo[4,3-a]pyridin-6-yloxy]-1,2,3,4-tetrahydro-naphthalen-1-yl}-urea formate salt]
< 10 nM | C[C@H]1CCCCN1c1nnc2ccc(O[C@@H]3CC[C@H](NC(=O)Nc4cc(C(C)(C)C)nn4-c4cccc(CCN5CCCN(C)CC5)c4)c4ccccc43)cn12 [Example 138, 1-(5-tert-Butyl-2-{3-[2-(4-methyl-[1,4]diazepan-1-yl)-ethyl]-phenyl}-2H-pyrazol-3-yl)-3-{(1S,4R)-4-[3-((S)-2-methyl-piperidin-1-yl)-[1,2,4]triazolo[4,3-a]pyridin-6-yloxy]-1,2,3,4-tetrahydro-naphthalen-1-yl}-urea formate salt]
< 10 nM | C[C@H]1CCCCN1c1nnc2ccc(O[C@@H]3CC[C@H](NC(=O)Nc4cc(C(C)(C)C)nn4-c4cccc(OCCN5CCCC5)c4)c4ccccc43)cn12 [Example 154, 1-{5-tert-Butyl-2-[3-(2-pyrrolidin-1-yl-ethoxy)-phenyl]-2H-pyrazol-3-yl}-3-{(1S,4R)-4-[3-((S)-2-methyl-piperidin-1-yl)-[1,2,4]triazolo[4,3-a]pyridin-6-yloxy]-1,2,3,4-tetrahydro-naphthalen-1-yl}-urea formate salt]
